± gives the expanded uncertainty stated by the source.
Assays:
[1] = 298.15 K, 101.33 kPa, Liquid
[2] = wn = mass fraction of the nth substance listed; conditions: 101 kPa, Liquid; for viscosity: Capillary tube (Ostwald / Ubbelohde) method; for mass density: Pycnometric method

CCCCOCCO [2-butoxyethan-1-ol]
[1]
Conditions	mass density [kg/m3]	viscosity [mPa·s]
Capillary tube (Ostwald / Ubbelohde) method	–	2.782 ± 0.022
Pycnometric method	896.16 ± 0.55	–

CCCCOCCO [2-butoxyethan-1-ol] + O
[2]
Conditions	mass density, 298.15 K [kg/m3]	mass density, 303.15 K [kg/m3]	mass density, 308.15 K [kg/m3]	mass density, 313.15 K [kg/m3]	viscosity, 298.15 K [mPa·s]	viscosity, 303.15 K [mPa·s]	viscosity, 308.15 K [mPa·s]	viscosity, 313.15 K [mPa·s]
w1 = 0.2	986.46 ± 0.55	982.92 ± 0.56	980.38 ± 0.56	977.64 ± 0.56	1.849 ± 0.018	1.622 ± 0.017	1.465 ± 0.017	1.302 ± 0.017
w1 = 0.4	967.1 ± 0.55	964.31 ± 0.56	961.45 ± 0.56	958.48 ± 0.56	2.998 ± 0.022	2.635 ± 0.021	2.334 ± 0.02	2.054 ± 0.019
w1 = 0.6	948.1 ± 0.55	944.74 ± 0.56	941.59 ± 0.56	937.57 ± 0.56	3.918 ± 0.026	3.394 ± 0.024	2.921 ± 0.022	2.539 ± 0.021
w1 = 1	896.16 ± 0.55	892.74 ± 0.55	888.88 ± 0.56	884.29 ± 0.56	2.782 ± 0.022	2.499 ± 0.021	2.206 ± 0.02	1.946 ± 0.019

— the NIST ThermoML archive (doi:10.1021/je4004405)
